Values quoted from earlier work as cited in patent US12029798B2, “Pre-targeting strategies for molecular imaging and/or radioimmunotherapy” (UNIVERSITY OF PITTSBURGH—OF THE COMMONWEALTH SYSTEM OF …, priority 2016, dated 2024).

Conditions: reaction with azides

In the case of oxa-dibenzocyclooctynes [ODIBO], the cycloaddition rate is given as 43 M^−1S^−1.
